Results from US20210221832A1, “SUBSTITUTED PYRIDOINDOLES FOR THE TREATMENT AND PROPHYLAXIS OF BACTERIAL INFECTION” (Hoffmann-La Roche Inc., priority 2018, published 2021).
Converted amounts (≈) assume the structure as drawn.

Key:
[1] = Lyophilisation Solubility Assay (LYSA); format: physicochemical; conditions: aqueous buffer, thermodynamic from solid; 0.05 M phosphate buffer, pH 6.5
Experimental: The solubility of compounds of present invention was assessed by LYSA assay. Samples were prepared in duplicate from 10 mM DMSO stock solutions (20 μL) diluted in 30 μL pure DMSO. After evaporation of DMSO with a centrifugal vacuum evaporator, the residue was dissolved in 0.05 M phosphate buffer (150 μL, pH 6.5), which was stirred for one hour and shook for two hours. After one night, the solution was filtered using a microtiter filter plate. Then the filtrate and its 1/10 dilution were analyzed by HPLC-UV. In addition, a four-point calibration curve was prepared from the 10 mM stock solutions and used for the solubility determination of the compounds.

[2] = Plasma stability assay in mouse plasma; format: in vitro ADME, CD-1 mouse; conditions: 10 μM prodrug, 37° C., prodrug remaining at 30 min compared to 0 min
Experimental: (§1) The degradation of prodrug and formation of active drug of present invention were monitored by current plasma stability assay. The assay is conducted in human plasma (purchased from Bioreclamation, Lot No. BRH1380385) or mouse plasma (prepared in-house using CD-1 mouse purchased from Vital River). Plasma is spiked with the test prodrug (10 μM final concentration) dissolved in DMSO (or water) and incubated at 37° C. Aliquots are removed at 0, 5, 15 and 30 minutes of incubation time, quenched with appropriate volume of internal standard solution (I.S., 0.2 μM of tolbutamide, prepared in ACN and water (1:1, v/v)), according to the mass spectrometer intensity of both analytes. Samples are centrifuged, the supernatant are removed and analyzed by LC-MS/MS. The degradation of prodrug was illustrated by calculation of percent remaining of prodrug at 30 min compared to that at 0 min (Table 2).

[3] = Plasma stability assay in human plasma; format: in vitro ADME; conditions: 10 μM prodrug, 37° C., prodrug remaining at 30 min compared to 0 min
Experimental: as §1

| Compound | solubility [1] | Percent Remaining (%) M [2] | Percent Remaining (%) H [3] |
| --- | --- | --- | --- |
| CN1C[C@@H]2CCN(c3c(-c4cnc5c(c4)c(=O)c(C(=O)O)cn5C)cnc4[nH]c5c(N(C)C(=O)OCOC(=O)/C=C/C(=O)O)cc(F)c(C#N)c5c34)[C@@H]2C1 [Example 1.02, 6-[5-Cyano-6-fluoro-8-[methyl-[[(E)-3-carboxyprop-2-enoyl]oxymethoxycarbonyl]amino]-4-[(3aS,6aS)-5-methyl-2,3,3a,4,6,6a-hexahydropyrrolo[2,3-c]pyrrol-1-yl]-9H-pyrido[2,3-b]indol-3-yl]-1-methyl-4-oxo-1,8-naphthyridine-3-carboxylic acid] | > 895 µg/mL | 70.2% | 88.2% |
| CNc1cc(F)c(C#N)c2c3c(N4CC[C@H]5CN(C)C[C@H]54)c(-c4cnc5c(c4)c(=O)c(C(=O)O)cn5C)cn(COP(=O)(O)O)c-3nc12 [Example 1.04, 6-[5-Cyano-6-fluoro-8-(methylamino)-1-(phosphonooxymethyl)-4-[(3aS,6aS)-5-methyl-2,3,3a,4,6,6a-hexahydropyrrolo[2,3-c]pyrrol-1-yl]pyrido[2,3-b]indol-3-yl]-1-methyl-4-oxo-1,8-naphthyridine-3-carboxylic acid] | > 950 µg/mL | 79.1% | 95.9% |
| CNc1cc(F)c(C#N)c2c1[nH]c1ncc(-c3cnc4c(c3)c(=O)c(C(=O)OCCOC(=O)[C@@H](N)C(C)C)cn4C)c(N3CC[C@H]4CN(C)C[C@H]43)c12 [Example 1.08, 2-[(2S)-2-Amino-3-methyl-butanoyl]oxyethyl 6-[5-cyano-6-fluoro-8-(methylamino)-4-[(3aS,6aS)-5-methyl-2,3,3a,4,6,6a-hexahydropyrrolo[2,3-c]pyrrol-1-yl]-9H-pyrido[2,3-b]indol-3-yl]-1-methyl-4-oxo-1,8-naphthyridine-3-carboxylate] | 480 µg/mL (≈ 676 µM) | 1.3% | 22.3% |
| CNc1cc(F)c(C#N)c2c1[nH]c1ncc(-c3cnc4c(c3)c(=O)c(C(=O)OCc3oc(=O)oc3C)cn4C)c(N3CC[C@H]4CN(C)C[C@H]43)c12 [Example 1.13, (5-Methyl-2-oxo-1,3-dioxol-4-yl)methyl 6-[5-cyano-6-fluoro-8-(methylamino)-4-[(3aS,6aS)-5-methyl-2,3,3a,4,6,6a-hexahydropyrrolo[2,3-c]pyrrol-1-yl]-9H-pyrido[2,3-b]indol-3-yl]-1-methyl-4-oxo-1,8-naphthyridine-3-carboxylate] |  | 0.6% | 1.9% |
| CC(=O)OC(C)OC(=O)N(C)c1cc(F)c(C#N)c2c1[nH]c1ncc(-c3cnc4c(c3)c(=O)c(C(=O)O)cn4C)c(N3CC[C@H]4CN(C)C[C@H]43)c12 (stereo partly drawn) [Example 1.15, 6-[8-[1-Acetoxyethoxycarbonyl(methyl)amino]-5-cyano-6-fluoro-4-[(3aS,6aS)-5-methyl-2,3,3a,4,6,6a-hexahydropyrrolo[2,3-c]pyrrol-1-yl]-9H-pyrido[2,3-b]indol-3-yl]-1-methyl-4-oxo-1,8-naphthyridine-3-carboxylic acid] |  | 4.7% | 50.5% |
| CN1C[C@H]2CCN(c3c(-c4cnc5c(c4)c(=O)c(C(=O)O)cn5C)cnc4[nH]c5c(N(C)C(=O)OCOP(=O)(O)O)cc(F)c(F)c5c34)[C@H]2C1 [Example 1.18, 6-[5,6-Difluoro-8-[methyl(phosphonooxymethoxycarbonyl)amino]-4-[(3aR,6aR)-5-methyl-2,3,3a,4,6,6a-hexahydropyrrolo[2,3-c]pyrrol-1-yl]-9H-pyrido[2,3-b]indol-3-yl]-1-methyl-4-oxo-1,8-naphthyridine-3-carboxylic acid] |  | 72.0% | 67.2% |
| CN1C[C@H]2CCN(c3c(-c4cnc5c(c4)c(=O)c(C(=O)O)cn5C)cnc4[nH]c5c(N(C)C(=O)OCOC(=O)/C=C/C(=O)O)cc(F)c(F)c5c34)[C@H]2C1 [Example 1.21, 6-[5,6-Difluoro-8-[methyl-[[(E)-3-carboxyprop-2-enoyl]oxymethoxycarbonyl]amino]-4-[(3aR,6aR)-5-methyl-2,3,3a,4,6,6a-hexahydropyrrolo[2,3-c]pyrrol-1-yl]-9H-pyrido[2,3-b]indol-3-yl]-1-methyl-4-oxo-1,8-naphthyridine-3-carboxylic acid] |  | 56.0% | 88.7% |
| CN1C[C@@H]2CCN(c3c(-c4ccc5ccc(C(=O)O)c(=O)n5c4)cnc4[nH]c5c(N(C)C(=O)OCOC(=O)/C=C/C(=O)O)cc(F)c(F)c5c34)[C@@H]2C1 [Example 1.33, 7-[5,6-Difluoro-8-[methyl-[[(E)-3-carboxyprop-2-enoyl]oxymethoxycarbonyl]amino]-4-[(3aS,6aS)-5-methyl-2,3,3a,4,6,6a-hexahydropyrrolo[2,3-c]pyrrol-1-yl]-9H-pyrido[2,3-b]indol-3-yl]-4-oxo-quinolizine-3-carboxylic acid] | 680 µg/mL (≈ 949 µM) |  |  |
| CN1C[C@@H]2CCN(c3c(-c4ccc5ccc(C(=O)O)c(=O)n5c4)cnc4[nH]c5c(N(C)C(=O)CNC(=O)CNC(=O)CN)cc(F)c(F)c5c34)[C@@H]2C1 [Example 1.34, 7-[8-[[2-[[2-[(2-Aminoacetyl)amino]acetyl]amino]acetyl]-methyl-amino]-5,6-difluoro-4-[(3aS,6aS)-5-methyl-2,3,3a,4,6,6a-hexahydropyrrolo[2,3-c]pyrrol-1-yl]-9H-pyrido[2,3-b]indol-3-yl]-4-oxo-quinolizine-3-carboxylic acid] | > 930 µg/mL |  |  |
| CN1C[C@@H]2CCN(c3c(-c4ccc5ccc(C(=O)O)c(=O)n5c4)cnc4[nH]c5c(N(C)C(=O)CNC(=O)CN)cc(F)c(F)c5c34)[C@@H]2C1 [Example 1.35, 7-[8-[[2-[(2-Aminoacetyl)amino]acetyl]-methyl-amino]-5,6-difluoro-4-[(3aS,6aS)-5-methyl-2,3,3a,4,6,6a-hexahydropyrrolo[2,3-c]pyrrol-1-yl]-9H-pyrido[2,3-b]indol-3-yl]-4-oxo-quinolizine-3-carboxylic acid] | > 915 µg/mL |  |  |
| CNc1cc(F)c(F)c2c3c(N4CC[C@H]5CN(C)C[C@H]54)c(-c4ccc5ccc(C(=O)O)c(=O)n5c4)cn(COP(=O)(O)O)c-3nc12 [Example 1.36, 7-[5,6-Difluoro-8-(methylamino)-1-(phosphonooxymethyl)-4-[(3aS,6aS)-5-methyl-2,3,3a,4,6,6a-hexahydropyrrolo[2,3-c]pyrrol-1-yl]pyrido[2,3-b]indol-3-yl]-4-oxo-quinolizine-3-carboxylic acid] | > 1000 µg/mL |  |  |
| CNc1cc(F)c(F)c2c1[nH]c1ncc(-c3ccc4ccc(C(=O)OCCOC(=O)[C@@H](N)C(C)C)c(=O)n4c3)c(N3CC[C@H]4CN(C)C[C@H]43)c12 [Example 1.37, 2-[(2S)-2-Amino-3-methyl-butanoyl]oxyethyl 7-[5,6-difluoro-8-(methylamino)-4-[(3aS,6aS)-5-methyl-2,3,3a,4,6,6a-hexahydropyrrolo[2,3-c]pyrrol-1-yl]-9H-pyrido[2,3-b]indol-3-yl]-4-oxo-quinolizine-3-carboxylate] | 315 µg/mL (≈ 458 µM) |  |  |
| CNc1cc(F)c(F)c2c1[nH]c1ncc(-c3ccc4ccc(C(=O)OC(C)OC(=O)OC(C)C)c(=O)n4c3)c(N3CC[C@H]4CN(C)C[C@H]43)c12 (stereo partly drawn) [Example 1.39, 1-Isopropoxycarbonyloxyethyl 7-[5,6-difluoro-8-(methylamino)-4-[(3aS,6aS)-5-methyl-2,3,3a,4,6,6a-hexahydropyrrolo[2,3-c]pyrrol-1-yl]-9H-pyrido[2,3-b]indol-3-yl]-4-oxo-quinolizine-3-carboxylate] |  | 0.1% | 98.4% |
| CN1C[C@@H]2CCN(c3c(-c4cnc5c(c4)c(=O)c(C(=O)O)cn5C)cnc4[nH]c5c(N(C)C(=O)OCOP(=O)(O)O)cc(F)c(F)c5c34)[C@@H]2C1 [Example 1.43, 6-[5,6-Difluoro-8-[methyl(phosphonooxymethoxycarbonyl)amino]-4-[(3aS,6aS)-5-methyl-2,3,3a,4,6,6a-hexahydropyrrolo[2,3-c]pyrrol-1-yl]-9H-pyrido[2,3-b]indol-3-yl]-1-methyl-4-oxo-1,8-naphthyridine-3-carboxylic acid] | 595 µg/mL (≈ 834 µM) |  |  |
